Source: US20240216344A1, “THIAZOLIDINEDIONE ANALOGS FOR THE TREATMENT OF NAFLD AND METABOLIC DISEASES” (Cirius Therapeutics, Inc., priority 2019, published 2024)

What was measured:
[1] = tested on: mice fed a diet enriched in trans fat, cholesterol and fructose; assay: Preclinical NASH model: trans fat, cholesterol and fructose diet for 19 weeks, NAS and fibrosis histology; format: in vivo; conditions: 30 mg/kg; treatment of the mice or isolated hepatocytes
Experimental: Mice were fed a diet enriched in trans fat, cholesterol and fructose for 19 weeks to induce hepatic damage, which was assessed by histological changes in the NAS and fibrosis, measured by trichrome staining for collagen. MSDC-0602K (30 mg/kg) was given at either four weeks into the treatment or 16 weeks into the treatment as compared to the vehicle treated mice who were also on the modified diet. The results of mice who were kept on the normal diet are included for comparison. […] The signals for activation of the stellate cells and fibrosis are attenuated by treatment of the mice or isolated hepatocytes with MSDC-0602K.

[2] = tested on: subjects with biopsy proven NASH with fibrosis and no cirrhosis; assay: EMMINENCE Phase 2b trial, interim analysis at six months; format: in vivo, human; conditions: for Peripheral edema present: 6 months
From the text: Detailed Description: This is a randomized, double-blinded study of three doses of MSDC-0602K or placebo given orally once daily to subjects with biopsy proven NASH with fibrosis and no cirrhosis. Visits to the clinic will be at baseline, 1, 2, 3, 6, 9, and 12 months, with one 2-week follow-up visit. Safety will be assessed by monitoring of vital signs, 12 lead electrocardiogram (ECG), physical examinations, safety labs, and adverse events (AEs).
An interim analysis of the EMMINENCE Phase 2b trial was conducted in the first 328 subjects who reached their six-month follow-up visit. […] In the two highest dose groups, at least 50% of patients with elevated baseline Alanine transaminase (ALT) or Aspartate Aminotransferase (AST) improved into the normal range at six months, as shown in Table 3.
The subjects included in this interim analysis had significant liver disease, as established by liver biopsy, with an average NAS at baseline of 5.3. […] Overall, baseline characteristics were well-balanced across treatment groups.

[3] = tested on: cell functions and key regulatory proteins; assay: Impact of MSDC-0602K vs overnutrition on cell functions and key regulatory proteins (Table 1)
patients with NASH = assay: Meta-analysis of 17 NASH clinical trials: change from baseline in LFTs and biomarkers by study arm, composite outcome; format: in vivo, human; conditions: for % Change from Baseline ALT / % Change from Baseline AST / % Change from Baseline Alk Phos / % Change from Baseline CK-18 / % Change from Baseline ELF / % Change from Baseline GGT / % Change from Baseline HbA1c / % Change from Baseline Insulin: EMMINENCE, follow-up 12 months
Experimental: Meta-regressions of NASH clinical trials were performed to examine associations between biomarker and histological changes within treatment groups, and to additionally examine associations between treatment effects on biomarkers and on liver histology. Trials that met the following criteria were included: • Randomized controlled clinical trial • Paired biopsies performed at baseline and follow-up, scored using the NASH CRN system.
• Published results at baseline, follow-up, or changes from baseline for any the following liver injury markers or biomarkers: alanine aminotransferase (ALT), aspartate aminotransferase (AST), alkaline phosphatase, hemoglobin A1c (HbA1c), gamma-glutamyltransferase (GGT), insulin, cytokeratin-18 (CK-18), or Enhanced Liver Fibrosis (ELF) score. Variables selected were based on variables whose change was commonly reported in multiple studies. • Changes in histological scores for ballooning, inflammation, steatosis, and fibrosis, or the pre-determined endpoints of NASH resolution without worsening fibrosis or improvement in fibrosis with no worsening of NASH.
All results from a search of PubMed for the keywords (“nonalcoholic steatohepatitis” or “non-alcoholic steatohepatitis”) and (“clinical trial” or “randomized”) and filtered for “Clinical Trial” were reviewed. EudraCT and ClinicalTrials.gov were searched for the keyword “nonalcoholic steatohepatitis” with results further filtered for phase 2 or 3, interventional, terminated or completed trials. These three sources returned 265 (PubMed), 153 (ClinicalTrials.gov), and 56 (EudraCT) results, which were each individually reviewed for inclusion in the analysis. Data extracted by one analyst from each source that included means and SDs at baseline, end of study, and changes from baseline to end of study for continuous variables were verified and corrected by a second analyst. Where SDs were not available, any provided estimate of variation was used to derive the SD where possible; a plot-digitizer program was used where data were presented in figures only. Data for dichotomous endpoints were extracted as the number of subjects with the event and corresponding sample size.
Random effects weighted least squares meta-regressions with inverse variance weighting were used to examine the association of changes in ALT, AST, CK-18, HbA1c, fasting insulin levels, ELF, alkaline phosphatase and GGT with biopsy outcomes. CK-18[M30] was measured in all studies except EMMINENCE where CK-18[M651 was reported. These associations were assessed at an individual cohort level (within treatment group), as well as based on the treatment effect. Percent change from baseline in liver injury makers and biomarkers was used as the predictor when examining the associations in the individual cohorts with outcomes while the treatment ratio, the ratio of active to placebo with respect to the relative changes from baseline, was used as the predictor when assessing the association with the treatment effect on outcomes. Standardized mean changes (mean/SD) or standardized mean treatment differences (mean difference/pooled SD) were used for continuous outcomes and Freeman-Tukey double arcsine transformed proportions or log odds ratios were used for dichotomous outcomes. Meta-regression results were computed using the metafor package available in R. P-values <0.05 were considered statistically significant.
From the meta-regression results, ranks for the association with responses and treatment effects for each histologic outcome (changes in ballooning, inflammation, steatosis, and fibrosis; NASH resolution without worsening of fibrosis, and fibrosis improvement without worsening of NAS) were assigned across seven biomarkers (AST, GGT, HbA1c, insulin, CK-18, ELF, and alkaline phosphatase) for both the slope and the mediator p-value (ranks 1-7, with 7 assigned to the biomarker with the greatest slope or lowest p-value). An average rank across all outcomes was then assigned to each biomarker. […]

COc1cccc(C(=O)COc2ccc(CC3SC(=O)NC3=O)cc2)c1 (centres unmarked) [MSDC-0602K]
signals for activation of the stellate cells and fibrosis [1]: attenuated | Peripheral edema present ([2]; 62.5 mg): 7.80% | Percentage of patients with high baseline ALT who returned to normal range ([2]; 62.5 mg, six months): 29% | Percentage of patients with high baseline AST who returned to normal range ([2]; 62.5 mg, six months): 36% | Placebo-corrected reduction in ALT ([2]; 125 mg cohort, six months): 14.3 U/L | Placebo-corrected reduction in AST ([2]; 125 mg cohort, six months): 7.9 U/L | Peripheral edema present ([2]; 125 mg): 13.50% | Percentage of patients with high baseline ALT who returned to normal range ([2]; 125 mg, six months): 60% | Percentage of patients with high baseline AST who returned to normal range ([2]; 125 mg, six months): 50% | Placebo-corrected reduction in ALT ([2]; 250 mg cohort, six months): 10.6 U/L | Placebo-corrected reduction in AST ([2]; 250 mg cohort, six months, not significant): 4 U/L | Peripheral edema present ([2]; 250 mg): 11.10% | Percentage of patients with high baseline ALT who returned to normal range ([2]; 250 mg, six months): 56% | Percentage of patients with high baseline AST who returned to normal range ([2]; 250 mg, six months): 52% | fasting glucose, HbA1c, insulin levels, and HOMA-IR ([2]; all subjects, 125 mg and 250 mg doses, six months): statistically significant improvements | Adiponectin ([2]; all treatment cohorts, dose dependent, six months): increased significantly | overall adverse event rates ([2]; placebo and all doses): similar | effect on lipids ([2]; six months): neutral effect | patients with elevated baseline ALT or AST improved into the normal range ([2]; two highest dose groups, six months): at least 50% | C-Reactive Protein levels ([2]; two lowest doses, six months): decrease | Fatty acid oxidation (burning fat) [3]: Increased | HIF1α [3]: Decreased | Inflammation (ballooning due to injury) [3]: Decreased | Insulin sensitivity (cellular response to insulin) [3]: Increased | PPARγ, PPARα [3]: Increased | SREBP [3]: Decreased | de novo lipid synthesis (making new fat) [3]: Decreased | mTORC1 [3]: Decreased | treatment effect on the surrogate endpoint (weighted average of changes in AST, CK-18, HbA1c) (patients with NASH; 17 NASH clinical trials): largest treatment effects | % Change from Baseline ALT (patients with NASH; 62.5 mg): −15.71% | % Change from Baseline AST (patients with NASH; 62.5 mg): −8.08% | % Change from Baseline Alk Phos (patients with NASH; 62.5 mg): −6.28% | % Change from Baseline CK-18 (patients with NASH; 62.5 mg): −7.08% | % Change from Baseline ELF (patients with NASH; 62.5 mg): 1.16% | % Change from Baseline GGT (patients with NASH; 62.5 mg): −17.56% | % Change from Baseline HbA1c (patients with NASH; 62.5 mg): −4.16% | % Change from Baseline Insulin (patients with NASH; 62.5 mg): −10.85% | % Change from Baseline ALT (patients with NASH; 125 mg): −28.13% | % Change from Baseline AST (patients with NASH; 125 mg): −21.90% | % Change from Baseline Alk Phos (patients with NASH; 125 mg): −10.70% | % Change from Baseline CK-18 (patients with NASH; 125 mg): −22.13% | % Change from Baseline ELF (patients with NASH; 125 mg): 0.09% | % Change from Baseline GGT (patients with NASH; 125 mg): −13.47% | % Change from Baseline HbA1c (patients with NASH; 125 mg): −3.79% | % Change from Baseline Insulin (patients with NASH; 125 mg): −30.08% | % Change from Baseline ALT (patients with NASH; 250 mg): −23.82% | % Change from Baseline AST (patients with NASH; 250 mg): −11.81% | % Change from Baseline Alk Phos (patients with NASH; 250 mg): −18.74% | % Change from Baseline CK-18 (patients with NASH; 250 mg): −8.61% | % Change from Baseline ELF (patients with NASH; 250 mg): 0.89% | % Change from Baseline GGT (patients with NASH; 250 mg): −28.14% | % Change from Baseline HbA1c (patients with NASH; 250 mg): −3.89% | % Change from Baseline Insulin (patients with NASH; 250 mg): −30.62%
